Measurements: patent US20100267561A1, “HERBICIDAL PYRIDAZINONE DERIVATIVES” (priority 2007, published 2010)

Columns and labels:
Assay in all cases: Test B pre-/postemergence plant response
Assay type in all cases: in vivo
[1] = test system: Russian thistle (Salsola iberica); conditions: Preemergence; for Russian Thistle plant response rating: scale 0 to 100
Method in brief: (§1)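 Seeds were sown and sprayed preemergence, while plants at 2 to 18 cm (1- to 4-leaf stage) got postemergence sprays. Compounds were formulated in a non-phytotoxic solvent mixture with surfactant. After 13 to 15 days in a greenhouse, injury was rated visually against untreated controls, 0 (no effect) to 100 (complete control).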

[2] = test system: blackgrass (Alopecurus myosuroides); conditions: for Blackgrass plant response rating: 8 g ai/ha
Method in brief: as §1

[3] = test system: catchweed bedstraw (Galium aparine); conditions: Preemergence; for Galium plant response rating: scale 0 to 100
Method in brief: as §1

[4] = test system: cocklebur (Xanthium strumarium); conditions: for Cocklebur plant response rating: 8 g ai/ha
Method in brief: as §1

[5] = test system: common ragweed (Ambrosia elation)
Method in brief: as §1

[6] = test system: corn (Zea mays)
Method in brief: as §1

[7] = test system: goosegrass (Eleusine indica)
Method in brief: as §1

[8] = test system: johnsongrass (Sorghum halepense)
Method in brief: as §1

[9] = test system: kochia (Kochia scoparia); conditions: for Kochia plant response rating: postemergence, 0-100 scale
Method in brief: as §1

[10] = test system: large crabgrass (Digitaria sanguinalis)
Method in brief: as §1

[11] = test system: velvetleaf (Abutilon theophrasti)
Method in brief: as §1

[12] = test system: wild oat (Avena fatua)
Method in brief: as §1

[13] = test system: woolly cupgrass (Eriochloa villosa)
Method in brief: as §1

[14] = test system: yellow nutsedge (Cyperus esculentus)
Method in brief: as §1

[15] = 31 g ai/ha, scale 0 to 100 (0 no effect, 100 complete control)
[16] = 62 g ai/ha, 0 to 100 scale, 0 no effect, 100 complete control
[17] = Postemergence, 16 g ai/ha, scale 0 to 100
[18] = Postemergence, 31 g ai/ha, scale 0 to 100
[19] = Postemergence, 62 g ai/ha, scale 0 to 100, 0 no effect, 100 complete control
[20] = Preemergence, 16 g ai/ha, scale 0 to 100 (0 no effect, 100 complete control)
[21] = Preemergence, 31 g ai/ha, scale 0 to 100 (0 no effect, 100 complete control)
[22] = Preemergence, 62 g ai/ha, 0 to 100 scale, 0 no effect, 100 complete control
[23] = 8 g ai/ha, postemergence, 0-100 scale
[24] = 16 g ai/ha, postemergence, 0-100 scale
[25] = Preemergence, 8 g ai/ha, scale 0 to 100
[26] = Preemergence, 16 g ai/ha, scale 0 to 100

## CCc1cc(-c2ccc(Br)cc2)nn1-c1c(O)cnn(C)c1=O [Compound 61]
[1]; [15]
  Plant response rating, Russian Thistle: 0
[1]; [16]
  Plant response rating, Russian Thistle: 0
[1]; 8 g ai/ha
  Russian Thistle plant response rating: 0
[1]; 16 g ai/ha
  Russian Thistle plant response rating: 0
[2]; postemergence, 0-100 scale
  Blackgrass plant response rating: 85
[2]; [17]
  Plant response rating, Blackgrass: 100
[2]; [18]
  Plant response rating, Blackgrass: 100
[2]; [19]
  Plant response rating, Blackgrass: 100
[2]; [20]
  Plant response rating, Blackgrass: 100
[2]; [21]
  Plant response rating, Blackgrass: 100
[2]; [22]
  Plant response rating, Blackgrass: 100
[2]; Preemergence, scale 0 to 100
  Blackgrass plant response rating: 40
[3]; [15]
  Plant response rating, Galium: 0
[3]; [16]
  Plant response rating, Galium: 0
[3]; 8 g ai/ha
  Galium plant response rating: 0
[4]; postemergence, 0-100 scale
  Cocklebur plant response rating: 0
[4]; [17]
  Plant response rating, Cocklebur: 0
[4]; [18]
  Plant response rating, Cocklebur: 0
[4]; [19]
  Plant response rating, Cocklebur: 0
[4]; [20]
  Plant response rating, Cocklebur: 0
[4]; [21]
  Plant response rating, Cocklebur: 0
[4]; [22]
  Plant response rating, Cocklebur: 0
[4]; Preemergence, scale 0 to 100
  Cocklebur plant response rating: 0
[5]; [23]
  Ragweed plant response rating: 0
[5]; [24]
  Ragweed plant response rating: 0
[5]; [18]
  Plant response rating, Ragweed: 0
[5]; [19]
  Plant response rating, Ragweed: 0
[5]; [21]
  Plant response rating, Ragweed: 0
[5]; [22]
  Plant response rating, Ragweed: 0
[5]; [25]
  Ragweed plant response rating: 0
[5]; [26]
  Ragweed plant response rating: 0
[6]; [23]
  Corn plant response rating: 75
[6]; [17]
  Plant response rating, Corn: 100
[6]; [18]
  Plant response rating, Corn: 100
[6]; [19]
  Plant response rating, Corn: 100
[6]; [21]
  Plant response rating, Corn: 100
[6]; [22]
  Plant response rating, Corn: 100
[6]; [25]
  Corn plant response rating: 95
[6]; [26]
  Corn plant response rating: 98
[7]; [23]
  Goosegrass plant response rating: 98
[7]; [24]
  Goosegrass plant response rating: 100
[7]; [18]
  Plant response rating, Goosegrass: 100
[7]; [19]
  Plant response rating, Goosegrass: 100
[7]; [21]
  Plant response rating, Goosegrass: 100
[7]; [22]
  Plant response rating, Goosegrass: 100
[7]; [25]
  Goosegrass plant response rating: 80
[7]; [26]
  Goosegrass plant response rating: 100
[8]; [23]
  Johnsongrass plant response rating: 65
[8]; [24]
  Johnsongrass plant response rating: 100
[8]; [18]
  Plant response rating, Johnsongrass: 100
[8]; [19]
  Plant response rating, Johnsongrass: 100
[8]; [21]
  Plant response rating, Johnsongrass: 100
[8]; [22]
  Plant response rating, Johnsongrass: 100
[8]; [25]
  Johnsongrass plant response rating: 90
[8]; [26]
  Johnsongrass plant response rating: 95
[9]; 8 g ai/ha
  Kochia plant response rating: 0
[9]; 16 g ai/ha
  Kochia plant response rating: 0
[9]; [18]
  Plant response rating, Kochia: 35
[9]; [19]
  Plant response rating, Kochia: 45
[9]; [21]
  Plant response rating, Kochia: 0
[9]; [22]
  Plant response rating, Kochia: 0
[10]; [23]
  Crabgrass, Large plant response rating: 98
[10]; [17]
  Plant response rating, Crabgrass, Large: 100
[10]; [18]
  Plant response rating, Crabgrass, Large: 100
[10]; [19]
  Plant response rating, Crabgrass, Large: 100
[10]; [21]
  Plant response rating, Crabgrass, Large: 100
[10]; [22]
  Plant response rating, Crabgrass, Large: 100
[10]; [25]
  Crabgrass, Large plant response rating: 50
[10]; [26]
  Crabgrass, Large plant response rating: 95
[11]; [23]
  Velvetleaf plant response rating: 0
[11]; [24]
  Velvetleaf plant response rating: 0
[11]; [18]
  Plant response rating, Velvetleaf: 0
[11]; [19]
  Plant response rating, Velvetleaf: 0
[11]; [21]
  Plant response rating, Velvetleaf: 0
[11]; [22]
  Plant response rating, Velvetleaf: 0
[11]; [25]
  Velvetleaf plant response rating: 0
[11]; [26]
  Velvetleaf plant response rating: 0
[12]; [23]
  Oat, Wild plant response rating: 100
[12]; [24]
  Oat, Wild plant response rating: 100
[12]; [18]
  Plant response rating, Oat, Wild: 100
[12]; [19]
  Plant response rating, Oat, Wild: 100
[12]; [21]
  Plant response rating, Oat, Wild: 95
[12]; [22]
  Plant response rating, Oat, Wild: 100
[12]; [25]
  Oat, Wild plant response rating: 40
[12]; [26]
  Oat, Wild plant response rating: 90
[13]; [23]
  Cupgrass, Woolly plant response rating: 98
[13]; [17]
  Plant response rating, Cupgrass, Woolly: 100
[13]; [18]
  Plant response rating, Cupgrass, Woolly: 100
[13]; [19]
  Plant response rating, Cupgrass, Woolly: 100
[13]; [21]
  Plant response rating, Cupgrass, Woolly: 100
[13]; [22]
  Plant response rating, Cupgrass, Woolly: 100
[13]; [25]
  Cupgrass, Woolly plant response rating: 80
[13]; [26]
  Cupgrass, Woolly plant response rating: 98
[14]; [23]
  Nutsedge, Yellow plant response rating: 0
[14]; [24]
  Nutsedge, Yellow plant response rating: 0
[14]; [18]
  Plant response rating, Nutsedge, Yellow: 0
[14]; [19]
  Plant response rating, Nutsedge, Yellow: 0
[14]; [21]
  Plant response rating, Nutsedge, Yellow: 0
[14]; [22]
  Plant response rating, Nutsedge, Yellow: 0
[14]; [25]
  Nutsedge, Yellow plant response rating: 0
[14]; [26]
  Nutsedge, Yellow plant response rating: 0

## CCc1cc(-c2ccc(C(F)(F)F)cc2)nn1-c1c(O)cnn(CC)c1=O [Compound 67]
[1]; [15]
  Plant response rating, Russian Thistle: 0
[1]; [16]
  Plant response rating, Russian Thistle: 0
[1]; 8 g ai/ha
  Russian Thistle plant response rating: 0
[1]; 16 g ai/ha
  Russian Thistle plant response rating: 0
[2]; postemergence, 0-100 scale
  Blackgrass plant response rating: 85
[2]; [17]
  Plant response rating, Blackgrass: 100
[2]; [18]
  Plant response rating, Blackgrass: 100
[2]; [19]
  Plant response rating, Blackgrass: 100
[2]; [20]
  Plant response rating, Blackgrass: 100
[2]; [21]
  Plant response rating, Blackgrass: 100
[2]; [22]
  Plant response rating, Blackgrass: 100
[2]; Preemergence, scale 0 to 100
  Blackgrass plant response rating: 100
[3]; [15]
  Plant response rating, Galium: 0
[3]; [16]
  Plant response rating, Galium: 0
[3]; 8 g ai/ha
  Galium plant response rating: 0
[3]; 16 g ai/ha
  Galium plant response rating: 0
[4]; postemergence, 0-100 scale
  Cocklebur plant response rating: 0
[4]; [17]
  Plant response rating, Cocklebur: 0
[4]; [18]
  Plant response rating, Cocklebur: 0
[4]; [19]
  Plant response rating, Cocklebur: 0
[4]; [20]
  Plant response rating, Cocklebur: 0
[4]; [21]
  Plant response rating, Cocklebur: 0
[4]; [22]
  Plant response rating, Cocklebur: 0
[4]; Preemergence, scale 0 to 100
  Cocklebur plant response rating: 0
[5]; [23]
  Ragweed plant response rating: 0
[5]; [24]
  Ragweed plant response rating: 0
[5]; [18]
  Plant response rating, Ragweed: 0
[5]; [19]
  Plant response rating, Ragweed: 0
[5]; [22]
  Plant response rating, Ragweed: 0
[6]; [23]
  Corn plant response rating: 75
[6]; [17]
  Plant response rating, Corn: 90
[6]; [18]
  Plant response rating, Corn: 100
[6]; [19]
  Plant response rating, Corn: 100
[6]; [21]
  Plant response rating, Corn: 100
[6]; [22]
  Plant response rating, Corn: 100
[6]; [25]
  Corn plant response rating: 60
[6]; [26]
  Corn plant response rating: 98
[7]; [23]
  Goosegrass plant response rating: 65
[7]; [24]
  Goosegrass plant response rating: 70
[7]; [18]
  Plant response rating, Goosegrass: 85
[7]; [19]
  Plant response rating, Goosegrass: 90
[7]; [21]
  Plant response rating, Goosegrass: 0
[7]; [22]
  Plant response rating, Goosegrass: 60
[7]; [25]
  Goosegrass plant response rating: 0
[7]; [26]
  Goosegrass plant response rating: 0
[8]; [23]
  Johnsongrass plant response rating: 80
[8]; [24]
  Johnsongrass plant response rating: 98
[8]; [18]
  Plant response rating, Johnsongrass: 100
[8]; [19]
  Plant response rating, Johnsongrass: 100
[8]; [21]
  Plant response rating, Johnsongrass: 100
[8]; [22]
  Plant response rating, Johnsongrass: 100
[8]; [25]
  Johnsongrass plant response rating: 70
[8]; [26]
  Johnsongrass plant response rating: 90
[9]; 8 g ai/ha
  Kochia plant response rating: 0
[9]; 16 g ai/ha
  Kochia plant response rating: 0
[9]; [18]
  Plant response rating, Kochia: 0
[9]; [19]
  Plant response rating, Kochia: 0
[10]; [23]
  Crabgrass, Large plant response rating: 70
[10]; [17]
  Plant response rating, Crabgrass, Large: 98
[10]; [18]
  Plant response rating, Crabgrass, Large: 100
[10]; [19]
  Plant response rating, Crabgrass, Large: 100
[10]; [21]
  Plant response rating, Crabgrass, Large: 0
[10]; [22]
  Plant response rating, Crabgrass, Large: 0
[10]; [25]
  Crabgrass, Large plant response rating: 0
[10]; [26]
  Crabgrass, Large plant response rating: 0
[11]; [23]
  Velvetleaf plant response rating: 0
[11]; [24]
  Velvetleaf plant response rating: 0
[11]; [18]
  Plant response rating, Velvetleaf: 0
[11]; [19]
  Plant response rating, Velvetleaf: 0
[11]; [21]
  Plant response rating, Velvetleaf: 0
[11]; [22]
  Plant response rating, Velvetleaf: 0
[11]; [25]
  Velvetleaf plant response rating: 0
[11]; [26]
  Velvetleaf plant response rating: 0
[12]; [23]
  Oat, Wild plant response rating: 100
[12]; [24]
  Oat, Wild plant response rating: 100
[12]; [18]
  Plant response rating, Oat, Wild: 100
[12]; [19]
  Plant response rating, Oat, Wild: 100
[12]; [21]
  Plant response rating, Oat, Wild: 95
[12]; [22]
  Plant response rating, Oat, Wild: 100
[12]; [25]
  Oat, Wild plant response rating: 90
[12]; [26]
  Oat, Wild plant response rating: 95
[13]; [23]
  Cupgrass, Woolly plant response rating: 90
[13]; [17]
  Plant response rating, Cupgrass, Woolly: 100
[13]; [18]
  Plant response rating, Cupgrass, Woolly: 100
[13]; [19]
  Plant response rating, Cupgrass, Woolly: 100
[13]; [21]
  Plant response rating, Cupgrass, Woolly: 0
[13]; [22]
  Plant response rating, Cupgrass, Woolly: 0
[13]; [25]
  Cupgrass, Woolly plant response rating: 0
[13]; [26]
  Cupgrass, Woolly plant response rating: 0
[14]; [23]
  Nutsedge, Yellow plant response rating: 0
[14]; [24]
  Nutsedge, Yellow plant response rating: 0
[14]; [18]
  Plant response rating, Nutsedge, Yellow: 0
[14]; [19]
  Plant response rating, Nutsedge, Yellow: 0
[14]; [21]
  Plant response rating, Nutsedge, Yellow: 0
[14]; [22]
  Plant response rating, Nutsedge, Yellow: 0
[14]; [25]
  Nutsedge, Yellow plant response rating: 0
[14]; [26]
  Nutsedge, Yellow plant response rating: 0
